Test systems include Candida parapsilosis; Bacillus subtilis DELTA; Candida krusei ATCC 6258; Staphylococcus aureus; Escherichia coli; Salmonella sp.; Yersinia enterocolitica.
Common to all, as to experiment: ≥ marks a high value that may be exact or a test limit, other limits are often not marked, values filed in µg/mL are converted to µM
Assay [1] has as its system Escherichia coli NBRC 3972.
The test system of assay [2] is Staphylococcus aureus NBRC 13276.
Assay [3] deals with Bacillus subtilis NBRC 3009.
Assay [4] concerns Zymomonas mobilis ATCC 10988.
Assay [5] relates to Pseudomonas aeruginosa PAO1.
Assay [6] deals with Escherichia coli DH5alpha.
Assay [7] has as its system Candida tropicalis ATCC 750.
Assay [8] deals with Candida parapsilosis ATCC 90018.
Assay [9] concerns Staphylococcus aureus ATCC 29213.
The subject of assay [10] is Pseudomonas aeruginosa ATCC 27853.
Assay [11] concerns Candida glabrata ATCC 2001.
Assay [12] deals with Escherichia coli ATCC 25922.
Assay [13] has as its system Candida albicans ATCC 10231.
Assay [14] relates to Staphylococcus aureus ATCC 25923.
Assay [15] relates to Escherichia coli KCTC 2433.
In assay [16] the test system is Bacillus subtilis ATCC 6633.
In assay [17] the test system is Micrococcus luteus ATCC 4698.
Assay [18] concerns Shigella dysenteriae ATCC 9752.
Assay [19] deals with Staphylococcus epidermidis ATCC 12228.
Assay [20] deals with Proteus mirabilis ATCC 25933.
The test system of assay [21] is Klebsiella pneumoniae ATCC 10031.
Assay [22] deals with Staphylococcus aureus KCTC 3881.
Assay [23] relates to Pseudomonas aeruginosa ATCC 9027.
The test system of assay [24] is Candida albicans ATCC 36232.
Assay [25] relates to Bifidobacterium longum subsp. infantis.
The subject of assay [26] is Staphylococcus aureus MW2.
Assay [27] relates to Klebsiella aerogenes ATCC 13048.
For assay [28], the system named is Acinetobacter baumannii ATCC 7978.
Assay [29] has as its system Staphylococcus aureus ATCC 29231.
Assay [30] has as its system Salmonella enterica subsp. enterica serovar Enteritidis.
Assay [31] has as its system Cryptococcus neoformans ATCC 32264.
In assay [32] the test system is Staphylococcus aureus ATCC 43300.

The structures appear in SMILES notation. ≈ marks a conversion by molar mass, not a printed value.

By MIC is commonly meant the least concentration at which growth counts as inhibited. Read a high MIC as weaker potency.

For `CC[C@H](C)[C@H](NC(=O)[C@H](C)NC(=O)[C@H](CO)NC(=O)[C@@H](NC(=O)[C@H](CC(C)C)NC(=O)CNC(=O)CNC(=O)[C@@H](NC(=O)[C@H](CC(C)C)NC(=O)[C@H](CO)NC(=O)[C@@H]1CCCN1C(=O)[C@H](CC(C)C)NC(=O)[C@H](Cc1ccccc1)NC(=O)[C@H](Cc1ccccc1)NC(=O)[C@@H](N)Cc1ccccc1)[C@@H](C)CC)C(C)C)C(=O)N[C@@H](CCCCN)C(N)=O` [FFFLPSLIGGLVSAIK], the results for the MIC in assay [1], in assay [2] and in assay [3] were not below 100 µM, not below 35.4 µM and 1.8 µM (≈ 3.08 µg/mL), respectively.

For `CC[C@H](C)[C@H](NC(=O)[C@H](CCCN=C(N)N)NC(=O)[C@H](CCCCN)NC(=O)[C@H](Cc1ccccc1)NC(C)=O)C(=O)N[C@H](C(=O)N[C@@H](CCC(N)=O)C(=O)N[C@H](C(=O)N[C@H](C(=O)N[C@@H](CCCCN)C(=O)N[C@@H](CCCCN)C(=O)N[C@@H](Cc1ccccc1)C(=O)N[C@@H](CC(C)C)C(=O)N[C@@H](CCCN=C(N)N)C(N)=O)[C@@H](C)CC)[C@@H](C)CC)C(C)C` [FKRIVQIIKKFLR], the MIC in assay [4] was found to be 2.96 µM (≈ 5.12 µg/mL); in assay [5], 1.78 µM (≈ 3.07 µg/mL); in assay [6], 29.6 µM (≈ 51.2 µg/mL); in the assay with Candida parapsilosis it was 17.8 µM (≈ 30.7 µg/mL); with Bacillus subtilis DELTA it was 11.8 µM (≈ 20.5 µg/mL).

Regarding `CC[C@H](C)[C@H](NC(=O)CN)C(=O)N[C@@H](CC(C)C)C(=O)N[C@@H](CC(=O)O)C(=O)N[C@H](C(=O)N[C@@H](CC(C)C)C(=O)N[C@@H](CC(N)=O)C(=O)N[C@@H](CCCCN)C(=O)N[C@H](C(=O)N[C@@H](CO)C(=O)N[C@@H](CC(N)=O)C(=O)N[C@@H](CC(C)C)C(=O)N[C@@H](Cc1ccccc1)C(N)=O)C(C)C)[C@@H](C)CC` [GILDILNKVSNLF], the MIC in assay [7] is 31.2 µM (≈ 45.1 µg/mL); in assay [8], not below 125 µM; in assay [9], 8 µM (≈ 11.6 µg/mL); with Candida krusei ATCC 6258, not below 62.5 µM; in assay [10] it was 31.2 µM (≈ 45.1 µg/mL); in [11], not below 125 µM. Also, the minimal inhibitory concentration (MIC) in assay [12] is 62.5 µM (≈ 90.3 µg/mL); in assay [13] it was 31.2 µM (≈ 45.1 µg/mL).

As to `CC[C@H](C)[C@@H]1NC(=O)[C@H](CCCCN)NC(=O)[C@@H](NC(=O)[C@H](CCCCN)NC(=O)[C@H](CC(C)C)NC(=O)[C@H](CCC(N)=O)NC(=O)[C@H](CCC(=O)O)NC(=O)[C@H](CC(C)C)NC(=O)[C@H](CC(C)C)NC(=O)[C@H](CO)NC(=O)CNC(=O)CNC(=O)[C@@H](NC(=O)[C@H](CC(N)=O)NC(=O)[C@H](CCCCN)NC(=O)[C@H](C)NC(=O)[C@@H](NC(=O)[C@H](CC(N)=O)NC(=O)[C@H](CCCCN)NC(=O)CNC(=O)[C@@H](NC(=O)[C@H](C)NC(=O)[C@H](CCCCN)NC(=O)[C@H](CC(C)C)NC(=O)[C@@H](NC(=O)CNC(=O)[C@@H](NC(=O)[C@@H](NC(=O)[C@@H](NC(=O)[C@H](CO)NC(=O)[C@H](Cc2ccccc2)NC(=O)[C@H](CC(C)C)NC(=O)CN)C(C)C)C(C)C)[C@@H](C)O)C(C)C)C(C)C)C(C)C)C(C)C)CSSC[C@@H](C(=O)O)NC(=O)CNC(=O)CNC(=O)[C@H](CO)NC1=O` [GLFSVVTGVLKAVGKNVAKNVGGSLLEQLKCKISGGC], the MIC in assay [14] amounted to 30 µM (≈ 110 µg/mL); in assay [15], 16.3 µM (≈ 60 µg/mL); in assay [16], 13.6 µM (≈ 50 µg/mL); in [17], 1.7 µM (≈ 6.25 µg/mL); in assay [18], 13.6 µM (≈ 50 µg/mL); in assay [19], 13.6 µM (≈ 50 µg/mL). The minimum inhibitory concentration (MIC) in assay [20] is 27.2 µM (≈ 99.9 µg/mL); in assay [21] it was 13.6 µM (≈ 50 µg/mL); in [22] it was 6.8 µM (≈ 25 µg/mL); in assay [23] it was more than 27.2 µM; in assay [12], 15 µM (≈ 55.1 µg/mL); in assay [24], 13.6 µM (≈ 50 µg/mL).

On to `CC[C@H](C)[C@H](NC(=O)[C@H](CCC(N)=O)NC(=O)[C@H](Cc1cnc[nH]1)NC(=O)[C@@H](NC(=O)[C@@H]1CCCN1C(=O)[C@H](CC(N)=O)NC(=O)[C@H](CC(C)C)NC(=O)[C@@H](N)CC(C)C)[C@@H](C)O)C(=O)N[C@@H](Cc1ccc(O)cc1)C(=O)N1CCC[C@H]1C(=O)N[C@H](C(=O)N[C@H](C(=O)N[C@@H](CCC(N)=O)C(=O)N1CCC[C@H]1C(=O)N[C@@H](CC(C)C)C(=O)N[C@@H](C)C(=O)N1CCC[C@H]1C(=O)N[C@H](C(=O)N[C@@H](Cc1cnc[nH]1)C(=O)N[C@@H](CC(N)=O)C(=O)N1CCC[C@H]1C(=O)N[C@H](C(=O)N[C@@H](CO)C(=O)O)[C@@H](C)CC)C(C)C)[C@@H](C)O)C(C)C` [LLNPTHQIYPVTQPLAPVHNPIS], for which the MIC in assay [25] was not below 1180 µM; against Staphylococcus aureus, more than 1180 µM; in the assay on Escherichia coli, more than 1180 µM.

Consider `CC[C@H](C)[C@H](NC(=O)[C@H](CCCCN)NC(=O)[C@H](Cc1c[nH]c2ccccc12)NC(=O)[C@@H](N)CC(C)C)C(=O)NCC(=O)N[C@@H](CCCCN)C(=O)N[C@@H](CCCCN)C(=O)N[C@H](C(=O)N[C@@H](Cc1c[nH]c2ccccc12)C(=O)N[C@@H](CCCN=C(N)N)C(=O)N[C@H](C(=O)NCC(=O)O)C(C)C)[C@@H](C)CC` [LWKIGKKIWRVG], for which the minimal inhibitory concentration (MIC) in assay [26], in assay [27], in [28] and in assay [29] was not below 86.3 µM throughout.

For `NC(=O)CC[C@H](NC(=O)[C@H](Cc1c[nH]c2ccccc12)NC(=O)[C@H](Cc1c[nH]c2ccccc12)NC(=O)[C@H](CCCN=C(N)N)NC(=O)[C@H](CCCN=C(N)N)NC(=O)[C@H](Cc1c[nH]c2ccccc12)NC(=O)[C@H](CCC(N)=O)NC(=O)[C@@H](N)CCCN=C(N)N)C(=O)N[C@@H](CCCN=C(N)N)C(N)=O` [RQWRRWWQR], the MIC in [30] is 8.58 µM (≈ 12.5 µg/mL); in assay [9] it was 34.3 µM (≈ 50 µg/mL); against Salmonella sp., 17.2 µM (≈ 25 µg/mL); in [31] it was 12.5 µM (≈ 18.2 µg/mL); in assay [32] it was 17.2 µM (≈ 25 µg/mL); in [12] it was 17.2 µM (≈ 25 µg/mL). Besides, the figures for the MIC (in the assay on Escherichia coli; with Yersinia enterocolitica; in assay [13]) were 8.58 µM (≈ 12.5 µg/mL), 17.2 µM (≈ 25 µg/mL) and 50 µM (≈ 72.8 µg/mL), respectively.

These data come from DBAASP.
